{
  "source": "PubChem BioAssay (NCI)",
  "assay_in_all_cases": "inhibition of tumour cell growth, NCI panel, 48 h",
  "key": {"SF-268 CNS": {"tested_on": "SF-268 CNS"}, "SN12C renal": {"tested_on": "SN12C renal"}, "IGROV1 ovarian": {"tested_on": "IGROV1 ovarian"}, "SK-MEL-28 melanoma": {"tested_on": "SK-MEL-28 melanoma"}, "SR leukemia": {"tested_on": "SR leukemia"}, "NCI-H23 lung": {"tested_on": "NCI-H23 lung"}, "SK-OV-3 ovarian": {"tested_on": "SK-OV-3 ovarian"}, "SNB-75 CNS": {"tested_on": "SNB-75 CNS"}, "HOP-62 NSCLC": {"tested_on": "HOP-62 NSCLC"}, "NCI-H226 lung": {"tested_on": "NCI-H226 lung"}, "HCT-15 colon": {"tested_on": "HCT-15 colon"}, "COLO 205 colon": {"tested_on": "COLO 205 colon"}, "RXF 393 renal": {"tested_on": "RXF 393 renal"}, "OVCAR-8 ovarian": {"tested_on": "OVCAR-8 ovarian"}, "HS 578T breast": {"tested_on": "HS 578T breast"}, "MOLT-4 leukemia": {"tested_on": "MOLT-4 leukemia"}, "EKVX NSCLC": {"tested_on": "EKVX NSCLC"}, "HT29 colon": {"tested_on": "HT29 colon"}, "UACC-62 melanoma": {"tested_on": "UACC-62 melanoma"}, "PC-3 prostate": {"tested_on": "PC-3 prostate"}, "SF-295 CNS": {"tested_on": "SF-295 CNS"}, "786-0 renal": {"tested_on": "786-0 renal"}, "HCC-2998 colon": {"tested_on": "HCC-2998 colon"}, "MDA-N": {"tested_on": "MDA-N"}, "OVCAR-5 ovarian": {"tested_on": "OVCAR-5 ovarian"}, "SF-539 CNS": {"tested_on": "SF-539 CNS"}, "A549 NSCLC": {"tested_on": "A549 NSCLC"}, "BT-549 breast": {"tested_on": "BT-549 breast"}, "TK-10 renal": {"tested_on": "TK-10 renal"}, "SNB-19 CNS": {"tested_on": "SNB-19 CNS"}, "MCF7 breast": {"tested_on": "MCF7 breast"}, "RPMI-8226 leukemia": {"tested_on": "RPMI-8226 leukemia"}, "CAKI-1 renal": {"tested_on": "CAKI-1 renal"}, "NCI-H460 lung": {"tested_on": "NCI-H460 lung"}, "A498 renal": {"tested_on": "A498 renal"}, "SK-MEL-5 melanoma": {"tested_on": "SK-MEL-5 melanoma"}, "UO-31 renal": {"tested_on": "UO-31 renal"}, "HCT-116 colon": {"tested_on": "HCT-116 colon"}, "DU-145 prostate": {"tested_on": "DU-145 prostate"}, "K-562 leukemia": {"tested_on": "K-562 leukemia"}, "OVCAR-3 ovarian": {"tested_on": "OVCAR-3 ovarian"}, "NCI/ADR-RES ovarian": {"tested_on": "NCI/ADR-RES ovarian"}, "T-47D breast": {"tested_on": "T-47D breast"}, "LOX IMVI melanoma": {"tested_on": "LOX IMVI melanoma"}, "MDA-MB-435": {"tested_on": "MDA-MB-435"}, "KM12 colon": {"tested_on": "KM12 colon"}, "CCRF-CEM leukemia": {"tested_on": "CCRF-CEM leukemia"}, "HL-60(TB) leukemia": {"tested_on": "HL-60(TB) leukemia"}, "U251 CNS": {"tested_on": "U251 CNS"}, "M14 melanoma": {"tested_on": "M14 melanoma"}, "OVCAR-4 ovarian": {"tested_on": "OVCAR-4 ovarian"}, "SW-620 colon": {"tested_on": "SW-620 colon"}, "UACC-257 melanoma": {"tested_on": "UACC-257 melanoma"}, "NCI-H522 lung": {"tested_on": "NCI-H522 lung"}, "MDA-MB-231 breast": {"tested_on": "MDA-MB-231 breast"}, "HOP-92 NSCLC": {"tested_on": "HOP-92 NSCLC"}, "SK-MEL-2 melanoma": {"tested_on": "SK-MEL-2 melanoma"}, "ACHN renal": {"tested_on": "ACHN renal"}},
  "note": "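Grown in 96-well plates, cells were treated for 48 hours with each compound at five concentrations. Insufficient inhibition: endpoint recorded as highest concentration tested. TGI: total growth inhibition.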",
  "data": [
    {"smiles": "C=C1CC2(CCOc3ccc(Cl)cc32)OC1=O", "note": "(stereo not drawn)", "values": [
      {"measurement": "TGI", "setting": "SF-268 CNS", "value": 16.1, "unit": "µM"},
      {"measurement": "TGI", "setting": "SN12C renal", "value": 22.1, "unit": "µM"},
      {"measurement": "TGI", "setting": "IGROV1 ovarian", "value": 21.2, "unit": "µM"},
      {"measurement": "TGI", "setting": "SK-MEL-28 melanoma", "value": 23.3, "unit": "µM"},
      {"measurement": "TGI", "setting": "SR leukemia", "value": 12.2, "unit": "µM"},
      {"measurement": "TGI", "setting": "NCI-H23 lung", "value": 19.5, "unit": "µM"},
      {"measurement": "TGI", "setting": "SK-OV-3 ovarian", "value": 26.2, "unit": "µM"},
      {"measurement": "TGI", "setting": "SNB-75 CNS", "value": 16.3, "unit": "µM"},
      {"measurement": "TGI", "setting": "HOP-62 NSCLC", "value": 22.7, "unit": "µM"},
      {"measurement": "TGI", "setting": "NCI-H226 lung", "value": 11.2, "unit": "µM"},
      {"measurement": "TGI", "setting": "HCT-15 colon", "value": 4.26, "unit": "µM"},
      {"measurement": "TGI", "setting": "COLO 205 colon", "value": 6.16, "unit": "µM"},
      {"measurement": "TGI", "setting": "RXF 393 renal", "value": 10.7, "unit": "µM"},
      {"measurement": "TGI", "setting": "OVCAR-8 ovarian", "value": 16.5, "unit": "µM"},
      {"measurement": "TGI", "setting": "HS 578T breast", "value": 23.4, "unit": "µM"},
      {"measurement": "TGI", "setting": "MOLT-4 leukemia", "value": 8.29, "unit": "µM"},
      {"measurement": "TGI", "setting": "EKVX NSCLC", "value": 21.5, "unit": "µM"},
      {"measurement": "TGI", "setting": "HT29 colon", "value": 24.2, "unit": "µM"},
      {"measurement": "TGI", "setting": "UACC-62 melanoma", "value": 26.1, "unit": "µM"},
      {"measurement": "TGI", "setting": "PC-3 prostate", "value": 10.6, "unit": "µM"},
      {"measurement": "TGI", "setting": "SF-295 CNS", "value": 21.5, "unit": "µM"},
      {"measurement": "TGI", "setting": "786-0 renal", "value": 7.13, "unit": "µM"},
      {"measurement": "TGI", "setting": "HCC-2998 colon", "value": 40.3, "unit": "µM"},
      {"measurement": "TGI", "setting": "MDA-N", "value": 17.9, "unit": "µM"},
      {"measurement": "TGI", "setting": "OVCAR-5 ovarian", "value": 23.4, "unit": "µM"},
      {"measurement": "TGI", "setting": "SF-539 CNS", "value": 0.976, "unit": "µM"},
      {"measurement": "TGI", "setting": "A549 NSCLC", "value": 29.3, "unit": "µM"},
      {"measurement": "TGI", "setting": "BT-549 breast", "value": 2.75, "unit": "µM"},
      {"measurement": "TGI", "setting": "TK-10 renal", "value": 17.5, "unit": "µM"},
      {"measurement": "TGI", "setting": "SNB-19 CNS", "value": 32.6, "unit": "µM"},
      {"measurement": "TGI", "setting": "MCF7 breast", "value": 6.16, "unit": "µM"},
      {"measurement": "TGI", "setting": "RPMI-8226 leukemia", "value": 9.35, "unit": "µM"},
      {"measurement": "TGI", "setting": "CAKI-1 renal", "value": 15.4, "unit": "µM"},
      {"measurement": "TGI", "setting": "NCI-H460 lung", "value": 12.6, "unit": "µM"},
      {"measurement": "TGI", "setting": "A498 renal", "value": 30.2, "unit": "µM"},
      {"measurement": "TGI", "setting": "SK-MEL-5 melanoma", "value": 14.2, "unit": "µM"},
      {"measurement": "TGI", "setting": "UO-31 renal", "value": 11.2, "unit": "µM"},
      {"measurement": "TGI", "setting": "HCT-116 colon", "value": 6.98, "unit": "µM"},
      {"measurement": "TGI", "setting": "DU-145 prostate", "value": 27.4, "unit": "µM"},
      {"measurement": "TGI", "setting": "K-562 leukemia", "value": "> 31.5", "unit": "µM"},
      {"measurement": "TGI", "setting": "OVCAR-3 ovarian", "value": 7.52, "unit": "µM"},
      {"measurement": "TGI", "setting": "NCI/ADR-RES ovarian", "value": 24.6, "unit": "µM"},
      {"measurement": "TGI", "setting": "T-47D breast", "value": 32.3, "unit": "µM"},
      {"measurement": "TGI", "setting": "LOX IMVI melanoma", "value": 8.88, "unit": "µM"},
      {"measurement": "TGI", "setting": "MDA-MB-435", "value": 14.1, "unit": "µM"},
      {"measurement": "TGI", "setting": "KM12 colon", "value": 28, "unit": "µM"},
      {"measurement": "TGI", "setting": "CCRF-CEM leukemia", "value": 53, "unit": "µM"},
      {"measurement": "TGI", "setting": "HL-60(TB) leukemia", "value": 8.84, "unit": "µM"},
      {"measurement": "TGI", "setting": "U251 CNS", "value": 22.5, "unit": "µM"},
      {"measurement": "TGI", "setting": "M14 melanoma", "value": 11.1, "unit": "µM"},
      {"measurement": "TGI", "setting": "OVCAR-4 ovarian", "value": 4.33, "unit": "µM"},
      {"measurement": "TGI", "setting": "SW-620 colon", "value": 5.44, "unit": "µM"},
      {"measurement": "TGI", "setting": "UACC-257 melanoma", "value": 20.1, "unit": "µM"},
      {"measurement": "TGI", "setting": "NCI-H522 lung", "value": 3.42, "unit": "µM"},
      {"measurement": "TGI", "setting": "MDA-MB-231 breast", "value": 20.1, "unit": "µM"},
      {"measurement": "TGI", "setting": "HOP-92 NSCLC", "value": 12.4, "unit": "µM"},
      {"measurement": "TGI", "setting": "SK-MEL-2 melanoma", "value": 6.29, "unit": "µM"},
      {"measurement": "TGI", "setting": "ACHN renal", "value": 15.4, "unit": "µM"}
    ]}
  ]
}
